According to ChEMBL document CHEMBL1201862, “PubChem BioAssay data set” (2004):
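In this assay, cells in 96-well plates receive the compound at five concentrations for 48 hours. Endpoints are linearly interpolated between the surrounding concentrations. GI50 is the concentration that inhibits growth by half.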 Calls of active or inactive are those of the source. Cut-off read from the data, not from the text of the source: active = GI50 up to about 1.1 µM and inactive = higher.

Columns and labels:
Assay in all cases: NCI tumour cell line growth inhibition, 48 h
OVCAR-8 = system: OVCAR-8
HT-29 = system: HT-29
A498 = system: A498
COLO 205 = system: COLO 205
MOLT-4 = system: MOLT-4
OVCAR-3 = system: OVCAR-3
RPMI-8226 = system: RPMI-8226
NCI/ADR-RES = system: NCI/ADR-RES
A549 = system: A549
HCC 2998 = system: HCC 2998
SR = system: SR
HCT-116 = system: HCT-116
U-251 = system: U-251
MDA-MB-435 = system: MDA-MB-435
UO-31 = system: UO-31
HOP-92 = system: HOP-92
NCI-H522 = system: NCI-H522
LOX IMVI = system: LOX IMVI
HL-60 = system: HL-60
SF-295 = system: SF-295

Measured: GI50

CNC(=O)C(C)C1C(=O)/C(=C(O)/C=C\C(C)=C\C(C)C2OC3(C)OC(C=CC34CO4)C2C)C(=O)N1C1CCC(O)C(C)O1 (centres undefined)
inactive: OVCAR-8 > 100 µM | HT-29 > 100 µM | A498 > 100 µM | COLO 205 > 100 µM | MOLT-4 > 100 µM | OVCAR-3 > 100 µM | RPMI-8226 > 100 µM | NCI/ADR-RES > 100 µM | A549 > 100 µM | HCC 2998 > 100 µM | SR > 100 µM | HCT-116 > 100 µM | U-251 > 100 µM | MDA-MB-435 > 100 µM | UO-31 > 100 µM

O=C(Cc1ccccc1)N/N=C/c1ccccc1O
inactive: OVCAR-8 8.93 µM | HT-29 4.84 µM | HOP-92 9.14 µM | COLO 205 4.09 µM | MOLT-4 4.55 µM | NCI-H522 13.2 µM | LOX IMVI 9.42 µM | OVCAR-3 3.36 µM | RPMI-8226 15.9 µM | NCI/ADR-RES 3.98 µM | A549 26.1 µM | HCC 2998 11.2 µM | SR 5.52 µM | HL-60 6.3 µM | HCT-116 7.55 µM | SF-295 10.3 µM | U-251 19.5 µM | MDA-MB-435 28.6 µM | UO-31 6.52 µM

NC(=O)c1nnsc1NN=O
inactive: OVCAR-8 > 100 µM | HT-29 > 100 µM | A498 > 100 µM | COLO 205 > 100 µM | MOLT-4 > 100 µM | NCI-H522 > 100 µM | LOX IMVI > 100 µM | RPMI-8226 > 100 µM | NCI/ADR-RES > 100 µM | A549 > 100 µM | HCC 2998 > 100 µM | SR > 100 µM | HL-60 > 100 µM | HCT-116 > 100 µM | SF-295 > 100 µM | U-251 > 100 µM | MDA-MB-435 > 100 µM | UO-31 > 100 µM

CCC[C@@H]1C(=O)N=C(N)N1C(=O)OCc1ccccc1
inactive: OVCAR-8 > 100 µM | HT-29 > 100 µM | A498 > 100 µM | COLO 205 > 100 µM | MOLT-4 > 100 µM | NCI-H522 > 100 µM | LOX IMVI > 100 µM | OVCAR-3 > 100 µM | RPMI-8226 > 100 µM | NCI/ADR-RES > 100 µM | HCC 2998 > 100 µM | SR > 100 µM | HL-60 > 100 µM | HCT-116 > 100 µM | SF-295 > 100 µM | U-251 > 100 µM | MDA-MB-435 > 100 µM | UO-31 > 100 µM

O/N=C1/Nc2ccccc2C(=S)N2CSCC12 (centres undefined)
inactive: OVCAR-8 > 100 µM | HT-29 36.9 µM | A498 68.7 µM | COLO 205 41.9 µM | MOLT-4 > 100 µM | NCI-H522 37 µM | LOX IMVI 62.8 µM | OVCAR-3 > 100 µM | RPMI-8226 > 100 µM | NCI/ADR-RES > 100 µM | A549 83.2 µM | HCC 2998 32.4 µM | SR 22.9 µM | HCT-116 43.6 µM | SF-295 63.1 µM | U-251 > 100 µM | MDA-MB-435 19.4 µM | UO-31 > 100 µM

CC1=C(C(=O)OCCc2ccc([N+](=O)[O-])cc2)C(c2ccccc2[N+](=O)[O-])C(C(=O)OC(C)C)=C(C)N1 (centres undefined)
inactive: OVCAR-8 3.66 µM | HT-29 5.07 µM | COLO 205 6.01 µM | MOLT-4 1.99 µM | NCI-H522 2.18 µM | LOX IMVI 4.14 µM | OVCAR-3 5.08 µM | RPMI-8226 2.93 µM | NCI/ADR-RES 3.19 µM | A549 2.96 µM | HCC 2998 7.43 µM | SR 2.94 µM | HL-60 2.2 µM | HCT-116 2.75 µM | SF-295 2.74 µM | U-251 4.73 µM | MDA-MB-435 5 µM | UO-31 4.2 µM

C=CCc1ccccc1C1CC2(C(=O)OC)OC1C(C(=O)OC)=C2C(=O)OC (centres undefined)
inactive: OVCAR-8 > 10 µM | HT-29 > 10 µM | A498 > 10 µM | COLO 205 > 10 µM | MOLT-4 > 10 µM | LOX IMVI > 10 µM | OVCAR-3 > 10 µM | RPMI-8226 > 10 µM | NCI/ADR-RES > 10 µM | A549 > 10 µM | HCC 2998 > 10 µM | SR > 10 µM | HL-60 > 10 µM | HCT-116 > 10 µM | SF-295 > 10 µM | U-251 > 10 µM | MDA-MB-435 > 10 µM | UO-31 > 10 µM

O=C1c2ccc3ccccc3c2CCC1N1CCCCC1 (centres undefined)
inactive: OVCAR-8 20.7 µM | HT-29 20.5 µM | HOP-92 16.6 µM | COLO 205 19.5 µM | NCI-H522 16.8 µM | LOX IMVI 19.2 µM | OVCAR-3 15.4 µM | NCI/ADR-RES 20.7 µM | A549 19.5 µM | SR 15.1 µM | HL-60 21.9 µM | HCT-116 17.8 µM | SF-295 19.3 µM | U-251 18.9 µM | MDA-MB-435 18 µM | UO-31 15.6 µM

N#Cc1nc(/C=C/c2nc(C#N)c(N)o2)oc1N
inactive: OVCAR-8 > 10 µM | HT-29 > 10 µM | HOP-92 > 10 µM | COLO 205 > 10 µM | NCI-H522 > 10 µM | LOX IMVI > 10 µM | RPMI-8226 > 10 µM | NCI/ADR-RES > 10 µM | A549 > 10 µM | HCC 2998 > 10 µM | SR > 10 µM | HL-60 > 10 µM | HCT-116 > 10 µM | SF-295 > 10 µM | MDA-MB-435 > 10 µM | UO-31 > 10 µM

O=c1oc2ccc([N+](=O)[O-])cc2c(Nc2ccc3c(c2)Sc2ccccc2O3)c1[N+](=O)[O-]
inactive: OVCAR-8 25.3 µM | HT-29 27.2 µM | HOP-92 16.3 µM | COLO 205 19.3 µM | NCI-H522 17.6 µM | LOX IMVI 20 µM | OVCAR-3 15.9 µM | RPMI-8226 9.2 µM | NCI/ADR-RES 29.5 µM | A549 24.9 µM | HCC 2998 13.6 µM | SR 22.5 µM | HL-60 18.6 µM | HCT-116 15.8 µM | SF-295 38.2 µM | U-251 17.5 µM | MDA-MB-435 30.8 µM | UO-31 22.6 µM

O=C(NNC(=O)c1ccncc1)C(=O)Nc1cc(Cl)c(Cl)cc1Cl
inactive: OVCAR-8 > 100 µM | HT-29 > 100 µM | HOP-92 > 100 µM | A498 > 100 µM | MOLT-4 > 100 µM | NCI-H522 > 100 µM | LOX IMVI > 100 µM | OVCAR-3 > 100 µM | RPMI-8226 > 100 µM | NCI/ADR-RES > 100 µM | A549 > 100 µM | HCC 2998 21.5 µM | HL-60 > 100 µM | HCT-116 > 100 µM | SF-295 > 100 µM | U-251 > 100 µM | MDA-MB-435 > 100 µM | UO-31 > 100 µM

CC1CCC2C(C(=O)O[C@H]3C4C=CO[C@@H](OC5OC(CO)C(O)C(O)C5O)C4[C@@]4(CO)O[C@@H]34)=CO[C@@H](OC3OC(CO)C(O)C(O)C3O)C12 (some centres undefined)
inactive: OVCAR-8 > 10 µM | HT-29 > 10 µM | HOP-92 > 10 µM | A498 > 10 µM | COLO 205 > 10 µM | MOLT-4 > 10 µM | NCI-H522 > 10 µM | LOX IMVI > 10 µM | OVCAR-3 > 10 µM | RPMI-8226 > 10 µM | NCI/ADR-RES > 10 µM | A549 > 10 µM | HCC 2998 > 10 µM | HL-60 > 10 µM | HCT-116 > 10 µM | SF-295 > 10 µM | U-251 > 10 µM | MDA-MB-435 > 10 µM | UO-31 > 10 µM

COc1c(C)c(C/C=C(\C)CC/C=C(\C)CC/C=C(\C)CC/C=C(\C)CCC=C(C)C)c(OC)c(OC)c1OC
inactive: OVCAR-8 18.4 µM | HT-29 88.3 µM | HOP-92 15.6 µM | COLO 205 > 100 µM | MOLT-4 40.6 µM | NCI-H522 16 µM | LOX IMVI 17.1 µM | OVCAR-3 > 100 µM | NCI/ADR-RES 25 µM | A549 17.6 µM | SR 22.9 µM | HCT-116 58.3 µM | SF-295 19.9 µM | U-251 79.6 µM | MDA-MB-435 31.1 µM | UO-31 21.6 µM

Cc1cnc2c(c1C)C(=O)c1ccccc1C2=O
inactive: OVCAR-8 43.2 µM | HT-29 37.2 µM | HOP-92 > 100 µM | A498 > 100 µM | COLO 205 28.8 µM | MOLT-4 28.3 µM | NCI-H522 > 100 µM | OVCAR-3 3.48 µM | RPMI-8226 24.6 µM | NCI/ADR-RES 46.3 µM | A549 40.1 µM | HCC 2998 29.7 µM | SR 38 µM | HCT-116 36.1 µM | SF-295 50.2 µM | U-251 61.5 µM | MDA-MB-435 19.3 µM | UO-31 21.2 µM

Cc1ccc(/C=N/Nc2cc(C)c3ccccc3n2)s1
inactive: OVCAR-8 23.2 µM | HT-29 3.85 µM | HOP-92 27.2 µM | COLO 205 4.71 µM | MOLT-4 1.42 µM | NCI-H522 4.06 µM | LOX IMVI 10.3 µM | OVCAR-3 2.65 µM | RPMI-8226 3.91 µM | NCI/ADR-RES 11.1 µM | A549 16.5 µM | HCC 2998 15.3 µM | SR 6.38 µM | HL-60 33.2 µM | HCT-116 3.85 µM | SF-295 15.1 µM | U-251 16.8 µM | MDA-MB-435 21.2 µM | UO-31 > 100 µM
